The numbers were not newly measured in patent US12496345B2, “Method of treating cancer” (Intensity Therapeutics, Inc., priority 2012, dated 2025), which cites them from elsewhere.

Experiment in data set [1]: not given
This is another data set of the same source.

Experiment in data set [2]: not given
The source holds these as a separate data set.

`O=c1[nH]cc(F)c(=O)[nH]1` [5-FU, fluorouracil]: the oral absorption entry (in vivo, po) is given as “not orally absorbed”.
On to `N.N.O=C([O-])C1(C(=O)[O-])CCC1.[Pt+2]` [Carboplatin, platinum, diammine [1,1-cyclobutane-dicarboxylato (2−)-0,0′]-(SP-4-2)], for which, where the note is “carboplatin alone, highly variable”, the oral bioavailability entry is reported as “approximately 4%”. The “pH of a 1% solution” value in data set [1] is 5-7. Moreover, in data set [2], the soluble in water result is given as “approximately 14 mg/mL”.
